Experimental data reported in article PMC8230303, “Coumarin-Based Triapine Derivatives and Their Copper(II) Complexes: Synthesis, Cytotoxicity and mR2 RNR Inhibition Activity” (Biomolecules, 2021).
Like-named read-outs stand apart in the source and are kept apart here.

Legend:
[1] = set-up: method as in doi:10.1002/ejic.200901174; settings: copper(II) complex of the named ligand; cited from earlier work
[2] = system: COLO-205 cells; experiment: Inhibition of cell viability, colorimetric MTT assay; format: cell-based; settings: Homo sapiens, 72 h exposure, mean ± SD
Procedure: (§1) Human breast adenocarcinoma cells MDA-MB-231, sensitive COLO-205 and multidrug resistant COLO-320 colorectal adenocarcinoma cells and normal human lung fibroblasts MRC-5 were obtained from ATCC. COLO-205 and COLO-320 cells were cultured in RPMI-1640 medium containing 10% foetal bovine serum, MRC-5 cells were cultured in EMEM medium containing 10% foetal bovine serum. MDA-MB-231 cells were cultured in DMEM/high glucose medium containing 10% FBS. Adherent MDA-MB-231 cells were grown in Falcon tissue culture 75 cm^2 flasks and all other cells were grown in tissue culture 25 cm^2 flasks (BD Biosciences, Singapore). All cell lines were grown at 37 °C in a humidified atmosphere of 95% air and 5% CO2. The stock solutions of copper(II) complexes were prepared in DMSO.
(§2) The cytotoxicity of the compounds was determined by colorimetric MTT assay. The cells were harvested from culture flasks by trypsinisation and seeded into Cellstar 96-well microculture plates at the seeding density of 6000 cells per well (6 × 10^4 cells/mL, MDA-MB-231) or 10,000 cells per well (1× 10^5 cells/mL cells/mL, COLO-205, COLO-320 and MRC-5). The cells were allowed to resume exponential growth for 24 h, and subsequently were exposed to drugs at different concentrations in media for 72 h. The drugs were diluted in complete medium at the desired concentration and added to each well (100 µL) and serially diluted to other wells. After exposure for 72 h, the media were replaced with MTT in media (5 mg/mL, 100 µL) and incubated for additional 50 min. Subsequently, the media were aspirated and the purple formazan crystals formed in viable cells were dissolved in DMSO (100 µL). Optical densities were measured at 570 nm using the BioTek H1 Synergy (BioTek, Singapore) microplate reader. The quantity of viable cells was expressed in terms of treated/control (T/C) values in comparison to untreated control cells, and 50% inhibitory concentrations (IC50) were calculated from concentration-effect curves by interpolation. Evaluation was based on at least three independent experiments, each comprising six replicates per concentration level.

[3] = system: MRC-5 cells; experiment: as above; format: cell-based; settings: Homo sapiens, MRC5, healthy lung fibroblasts, 72 h exposure, mean ± SD
Procedure: as §1, §2

[4] = system: COLO-320 cells; experiment: as above; format: cell-based, human; settings: for IC50: Homo sapiens, COLO 320, MTT assay, 72 h exposure, mean ± SD
Procedure: as §1, §2

[5] = system: MDA-MB-231 cells; experiment: as above; format: cell-based; settings: Homo sapiens, 72 h exposure, mean ± SD
Procedure: as §1, §2

[6] = system: MDA-MB-231 cells; set-up: method as in PMID 30384010; settings: cited from earlier work
[7] = biological target: T1, mouse R2 RNR protein (Mus musculus, UniProt P11157); set-up: method as in PMID 32961653; settings: in 3 min; cited from earlier work
T1 construct: mR2 protein was expressed, purified, and iron-reconstituted as described previously; made in house
T1 sequence (P11157 1-390): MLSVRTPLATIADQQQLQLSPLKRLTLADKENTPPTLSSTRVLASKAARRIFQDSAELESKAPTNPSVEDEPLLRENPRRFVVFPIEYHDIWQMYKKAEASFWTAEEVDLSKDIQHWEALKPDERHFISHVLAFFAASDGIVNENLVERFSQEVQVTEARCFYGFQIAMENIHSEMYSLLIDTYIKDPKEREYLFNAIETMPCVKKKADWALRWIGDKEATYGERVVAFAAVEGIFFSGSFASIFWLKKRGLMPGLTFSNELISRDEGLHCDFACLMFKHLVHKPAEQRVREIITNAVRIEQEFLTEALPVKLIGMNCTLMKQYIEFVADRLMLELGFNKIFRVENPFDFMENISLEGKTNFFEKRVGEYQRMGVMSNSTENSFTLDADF

Compound	IC50 [2]	IC50 [4]	IC50 [5]	logβ[CuL]+ [1]	IC50 [3]	SF ([4]; IC50(MRC-5)/IC50(COLO-320))	IC50 [6]	tyrosyl radical reduction [7]
CN(C)C(=S)NN=Cc1ncccc1N [APTSC, 3-aminopyridine-2-carboxaldehyde 4N-dimethylthiosemicarbazone]	–	–	–	13.95(2)	–	–	–	–
COc1cccc2c1C(=O)c1c(O)c3c(c(O)c1C2=O)C[C@@](O)(C(=O)CO)C[C@@H]3O[C@H]1C[C@H](N)[C@H](O)[C@H](C)O1 [Doxorubicin, reference compound]	3.3 µM	3.1 µM	–	–	5.2 µM	–	–	–
CN(C)C(=S)NN=Cc1ccccn1 [PTSC, pyridine-2-carboxaldehyde 4N-dimethylthiosemicarbazone]	–	–	–	13.57(2)	–	–	–	–
NC(=S)NN=Cc1ncccc1N [Triapine, 3-aminopyridine-2-carboxaldehyde thiosemicarbazone]	–	–	–	13.89(3)	–	–	1.5 ± 1.1 µM	100%

Now from value to molecule, other results behind:

IC50 [2]	IC50 [4]	IC50 [5]	Compound	logβ[CuL]+ [1]	IC50 [3]	SF ([4]; IC50(MRC-5)/IC50(COLO-320))	IC50 [6]	tyrosyl radical reduction [7]
4.4 ± 0.7 µM	4.6 ± 0.3 µM	3 ± 0.3 µM	CN(C)C(=S)NN=Cc1cc(COc2ccc3cc(C(=O)N4CCN(Cc5ccnc(C=NNC(=S)N(C)C)c5)CC4)c(=O)oc3c2)ccn1 [H2L^4, 2-((4-((4-(7-((2-((2-(dimethylcarbamothioyl)hydrazineylidene)methyl)pyridin-4-yl)methoxy)-2-oxo-2H-chromene-3-carbonyl)piperazin-1-yl)methyl)pyridin-2-yl)methylene)-N,N-dimethylhydrazine-1-carbothioamide]	–	4 ± 0.3 µM	0.9	–	–
9.2 ± 0.1 µM	6.7 ± 0.9 µM	4.8 ± 1.3 µM	CN(C)C(=S)NN=Cc1cc(CN2CCN(C(=O)c3cc4ccc(O)cc4oc3=O)CC2)ccn1 [HL^1, 2-((4-((4-(7-Hydroxy-2-oxo-2H-chromene-3-carbonyl)piperazin-1-yl)methyl)pyridin-2-yl)methylene)-N,N-dimethylhydrazine-1-carbothioamide]	–	41 ± 1 µM	–	–	–
89 ± 6 µM	83 ± 7 µM	18 ± 4 µM	O=C(c1cc2ccc(O)cc2oc1=O)N1CCN(Cc2ccnc(C=NNC(=S)Nc3ccccc3)c2)CC1 [HL^2, 2-((4-((4-(7-Hydroxy-2-oxo-2H-chromene-3-carbonyl)piperazin-1-yl)methyl)pyridin-2-yl)methylene)-N-phenylhydrazine-1-carbothioamide]	–	54 ± 5 µM	–	–	–
76 ± 8 µM	90 ± 10 µM	11 ± 1 µM	Cc1cc(NCNN=Cc2cc(CN3CCN(C(=O)c4cc5ccc(O)cc5oc4=O)CC3)ccn2)cc(C)c1O [HL^3, 7-Hydroxy-3-(4-((2-((2-(((4-hydroxy-3,5-dimethylphenyl)amino)methyl)hydrazineylidene)-methyl)pyridin-4-yl)methyl)piperazine-1-carbonyl)-2H-chromen-2-one]	–	> 100 µM	–	–	–
